{"source": "the OPERA property sets (Mansouri et al. 2018)", "data": [{"details": "not given", "units": {"melting point": "°C", "boiling point": "°C"}, "values": [{"compound": "CC1OC(OCC2OC(Oc3c(-c4ccc(O)cc4)oc4cc(OC5OC(C)C(O)C(O)C5O)cc(O)c4c3=O)C(O)C(O)C2O)C(O)C(O)C1O", "note": "(configuration not stated)", "melting point": 250}, {"compound": "CCCNCC", "boiling point": 81}, {"compound": "O=C(Nc1ccc([N+](=O)[O-])cc1Cl)c1cc(Cl)ccc1O", "log10 Koc (L/kg)": 3.35, "log10 vapour pressure (mmHg)": -10.8, "melting point": 230, "ready biodegradability": "not readily biodegradable"}, {"compound": "Cc1cccc(C(C)(C)C)c1", "boiling point": 189, "melting point": -41.4}, {"compound": "CC(=O)CC(C)(C)C", "boiling point": 126, "melting point": -64}, {"compound": "CN1CCN(C(=O)CC(c2ccc(Cl)cc2)(c2ccc(Cl)cc2)c2ccc(Cl)cc2)CC1", "melting point": 214}, {"compound": "N=C(N)c1ccc(C=Cc2ccc(C(=N)N)cc2O)cc1", "melting point": 235}, {"compound": "CCOc1ccc(I)cc1", "boiling point": 250, "melting point": 29}, {"compound": "c1ccc(Cc2nc3ccccc3[nH]2)cc1", "melting point": 187}, {"compound": "C=C1N(C)c2ccccc2C1(C)C", "boiling point": 248}, {"compound": "Clc1ccc(Oc2cccc(Cl)c2)cc1", "log10 vapour pressure (mmHg)": -3.19}, {"compound": "BrCC=Cc1ccccc1", "melting point": 34}, {"compound": "CCCCCCCCCCCCOP(=O)(O)O", "ready biodegradability": "readily biodegradable"}, {"compound": "O=C(O)c1ccccc1C(=O)O", "log10 Koc (L/kg)": 1.07, "log10 vapour pressure (mmHg)": -6.2, "ready biodegradability": "readily biodegradable"}, {"compound": "COc1cc(S(C)=O)ccc1-c1nc2ncccc2[nH]1", "note": "(configuration not stated)", "melting point": 204}, {"compound": "COCC(C)OCC(C)OCC(C)O", "note": "(configuration not stated)", "boiling point": 250, "log10 vapour pressure (mmHg)": -1.7}, {"compound": "CCOC(=O)CC(=O)OCC", "boiling point": 200, "log10 vapour pressure (mmHg)": -0.57, "melting point": -50, "ready biodegradability": "readily biodegradable"}, {"compound": "Nc1ccc(I)cc1", "melting point": 67.5}, {"compound": "CCc1ccc([N+](=O)[O-])cc1", "boiling point": 246, "melting point": -12.3}, {"compound": "O=[N+]([O-])c1cc([N+](=O)[O-])c(F)cc1F", "melting point": 73}, {"compound": "O=[N+]([O-])c1cc(N(CCO)CCO)ccc1NCCO", "melting point": 95.5}, {"compound": "C=C(C)[C@H]1CCC(C)=C[C@@H]1c1c(O)cc(CCCCC)cc1O", "melting point": 67}, {"compound": "Clc1cccc(-c2ccccc2)c1Cl", "log10 Henry constant (atm·m³/mol)": -3.64}, {"compound": "NNC(=O)c1ccccc1", "melting point": 115}, {"compound": "CCc1ccccc1N", "boiling point": 210, "log10 vapour pressure (mmHg)": -0.77, "melting point": -46.5}, {"compound": "CC(CC1CCCCC1)C1CCCCC1", "note": "(configuration not stated)", "boiling point": 284, "melting point": -22}, {"compound": "COc1ccc2c(=O)c(C)c(-c3ccccc3)oc2c1CN(C)C", "melting point": 110}, {"compound": "CCCCCCCC(=O)OC(=O)CCCCCCC", "boiling point": 282, "melting point": -1}, {"compound": "CCCCOC(=O)CC(CC(=O)OCCCC)(OC(C)=O)C(=O)OCCCC", "melting point": -80, "ready biodegradability": "readily biodegradable"}, {"compound": "BrCc1ccc2ccccc2c1", "melting point": 56}, {"compound": "O=C(O)CCC(=O)c1ccc2c(c1)-c1cccc3cccc-2c13", "melting point": 208}, {"compound": "CCOC(=O)CSc1nc(C(C)(C)C)nn1C(=O)N(C)C", "log10 vapour pressure (mmHg)": -6.92, "melting point": 53}, {"compound": "CCOC(=O)CCC(=O)OC", "boiling point": 208}, {"compound": "CC[N+](C)(C)CCOC(=O)C(O)(c1ccccc1)c1ccccc1.[Cl-]", "melting point": 213}, {"compound": "CC(=O)Nc1ccc(F)cc1", "log10 Koc (L/kg)": 1.48, "melting point": 154}, {"compound": "COc1cc(C=O)ccc1O[C@@H]1O[C@H](CO)[C@@H](O)[C@H](O)[C@H]1O", "melting point": 189}, {"compound": "C=C(C)CNc1ccc(C(C)C(=O)O)cc1", "note": "(configuration not stated)", "melting point": 107}, {"compound": "C1=COCC1", "boiling point": 54.5, "log10 vapour pressure (mmHg)": 2.4}, {"compound": "O=C(NC(=O)c1c(F)cccc1F)Nc1ccc(Cl)cc1", "log10 Koc (L/kg)": 3.83, "log10 vapour pressure (mmHg)": -9.05, "melting point": 239}, {"compound": "C=CC1CCC1C=C", "note": "(configuration not stated)", "boiling point": 112}, {"compound": "O=C1CCC(=O)N1Cl", "boiling point": 216, "melting point": 150}, {"compound": "CCOP(=S)(OCC)Oc1nc(Cl)c(Cl)cc1Cl", "log10 Henry constant (atm·m³/mol)": -5.53, "log10 Koc (L/kg)": 3.7, "log10 vapour pressure (mmHg)": -4.69, "melting point": 42, "ready biodegradability": "not readily biodegradable"}, {"compound": "CCN(CC)C(=O)n1cnc(S(=O)(=O)c2c(C)cc(C)cc2C)n1", "log10 vapour pressure (mmHg)": -10.6, "melting point": 115}, {"compound": "COc1cc(-c2ccc(N=C=O)c(OC)c2)ccc1N=C=O", "melting point": 114}, {"compound": "O=S(=O)(F)c1ccccc1", "boiling point": 204}, {"compound": "O=C(CO)c1ccccc1", "melting point": 90}, {"compound": "C[C@@H]1O[C@@H](O[C@H]2C[C@@H](O)[C@]3(CO)[C@H]4[C@H](O)C[C@]5(C)[C@@H](C6=CC(=O)OC6)CC[C@]5(O)[C@@H]4CC[C@]3(O)C2)[C@H](O)[C@H](O)[C@H]1O", "melting point": 200}, {"compound": "CCn1ccnc1", "boiling point": 208}, {"compound": "O=C(O)c1cc(=O)cc(C(=O)O)o1", "melting point": 262}, {"compound": "CCCC(C)COC(C)=O", "note": "(configuration not stated)", "boiling point": 163}, {"compound": "C=CCc1ccc(O)c(OC)c1", "boiling point": 253, "log10 vapour pressure (mmHg)": -1.65, "melting point": -9.1}, {"compound": "CCCC(=O)N(CSP(=S)(OC)OC)c1ccccc1Cl", "melting point": 42}, {"compound": "O=C1CC(C(=O)O)CC(=O)C1=C(O)C1CC1", "note": "(configuration not stated)", "log10 vapour pressure (mmHg)": -7.76, "melting point": 144}, {"compound": "Cc1cnccn1", "boiling point": 137, "log10 Henry constant (atm·m³/mol)": -5.66, "log10 vapour pressure (mmHg)": 0.906, "melting point": -29}, {"compound": "CCCCCCCOCCCCCCC", "boiling point": 258}, {"compound": "O=c1cc[nH]c(=O)[nH]1", "log10 vapour pressure (mmHg)": -4.33, "melting point": 338}, {"compound": "NC1CCC1", "boiling point": 82}, {"compound": "CCOC(=O)CC(C)C", "boiling point": 135, "log10 vapour pressure (mmHg)": 0.919, "melting point": -99.3}, {"compound": "Cc1c(Cl)cccc1Cl", "boiling point": 198, "melting point": 25.8, "ready biodegradability": "not readily biodegradable"}, {"compound": "CC(=O)O[C@H]1C[C@@H]2CC[C@@H]3[C@H](CC[C@@]4(C)[C@H]3C[C@H]([N+]3(C)CCCCC3)[C@@H]4OC(C)=O)[C@@]2(C)C[C@@H]1N1CCCCC1.[Br-]", "melting point": 228}, {"compound": "O=C(O)c1cc(I)c(O)c(I)c1", "melting point": 237}, {"compound": "ClC(Cl)[Si](Cl)(Cl)Cl", "boiling point": 145}, {"compound": "O=Cc1ccc(Cl)c(Cl)c1", "boiling point": 248, "melting point": 44}, {"compound": "CN1CCC(OC(c2ccccc2)c2ccccc2)CC1.Cl", "melting point": 204}, {"compound": "COc1cc2cc(c1Cl)N(C)C(=O)C[C@H](OC(=O)[C@H](C)N(C)C(C)=O)[C@]1(C)O[C@H]1[C@H](C)[C@@H]1C[C@@](O)(NC(=O)O1)C(OC)C=CC=C(C)C2", "note": "(some centres not stated)", "melting point": 172}, {"compound": "Brc1ccc2ccccc2c1", "boiling point": 282, "melting point": 59}, {"compound": "O=C(ON=C1C=CC(=NOC(=O)c2ccccc2)C=C1)c1ccccc1", "ready biodegradability": "not readily biodegradable"}, {"compound": "Cc1ccc(C(=O)COc2c(C(=O)c3ccc(Cl)c(C)c3Cl)c(C)nn2C)cc1", "log10 vapour pressure (mmHg)": -7.01, "melting point": 133}, {"compound": "CC(C)C(C)C(C)C(C)C", "note": "(configuration not stated)", "boiling point": 156}, {"compound": "CN[C@@H](C)[C@@H](O)c1ccccc1", "melting point": 90.5}, {"compound": "CC(=O)OCC(=O)[C@@]12OC(C)(C)O[C@@H]1C[C@H]1[C@@H]3CC(C=O)=C4C=C(OCCCl)CC[C@]4(C)[C@@]3(F)[C@@H](O)C[C@@]12C", "melting point": 181}, {"compound": "O=C(Nc1ccccc1)C(=O)Nc1ccccc1", "melting point": 254}, {"compound": "NNc1ccccn1", "melting point": 46.6}, {"compound": "CCC1(C)CCCCC1", "boiling point": 152}, {"compound": "O=C(Nc1ccccc1)NC1CCCCCC1", "log10 Koc (L/kg)": 2.37}, {"compound": "CCOP(=S)(OCC)OC(Cl)C(Cl)(Cl)Cl", "note": "(configuration not stated)", "log10 Koc (L/kg)": 3.6, "log10 vapour pressure (mmHg)": -3.1}, {"compound": "CCN1C(=O)c2ccccc2C1=O", "boiling point": 286, "melting point": 79}, {"compound": "O=C(O)C(Cc1cc(I)c(O)c(I)c1)c1ccccc1", "note": "(configuration not stated)", "melting point": 164}, {"compound": "OC1CCC1", "boiling point": 124}, {"compound": "CCOC(=O)Nc1ccc2c(c1)N(C(=O)CCN1CCOCC1)c1ccccc1S2", "melting point": 156}, {"compound": "NNC(=O)c1ccc(N)cc1", "melting point": 226}, {"compound": "Oc1ccc(/N=N/c2ccccc2)cc1", "log10 vapour pressure (mmHg)": -6.64, "melting point": 155}, {"compound": "C#CCCl", "boiling point": 58}, {"compound": "CC(=O)N(C(C)=O)c1ccccc1", "melting point": 37.5}, {"compound": "CCOC(=O)C(C)(C)C(C)=O", "boiling point": 182}, {"compound": "c1ccc(Nc2ccccn2)nc1", "boiling point": 308, "melting point": 90.5}, {"compound": "Cc1ncc(CO)c(CO)c1O.Cl", "melting point": 207}, {"compound": "COc1ccc(CCc2cc(OC)c3ccccc3n2)cc1OC", "melting point": 116}, {"compound": "BrCc1ccccc1Br", "melting point": 31}, {"compound": "OCCOc1ccc2ccccc2c1", "melting point": 76.7}, {"compound": "CC(=O)OCC(=O)[C@H]1CC[C@H]2[C@@H]3CC[C@H]4C[C@H](O)CC[C@]4(C)[C@H]3C(=O)C[C@]12C", "melting point": 176}, {"compound": "CNC(=O)Oc1cccc2c1OC(C)(C)O2", "log10 Koc (L/kg)": 2.75}, {"compound": "N#Cc1cc(I)c(O)c(I)c1", "melting point": 212, "ready biodegradability": "not readily biodegradable"}, {"compound": "Nc1ccc2ncccc2c1", "log10 vapour pressure (mmHg)": -4.79, "melting point": 114}, {"compound": "Nc1cc2c(cc1Cl)C(=O)c1ccccc1C2=O", "melting point": 282}, {"compound": "c1ccc(N2CCOCC2)cc1", "melting point": 52.5}, {"compound": "CC(C)(c1cc(Cl)c(O)c(Cl)c1)c1cc(Cl)c(O)c(Cl)c1", "melting point": 135}]}, {"details": "fish", "values": [{"compound": "CCOP(=S)(OCC)ON=C(C#N)c1ccccc1", "log10 biotransformation half-life (days)": 0.84}, {"compound": "Clc1cccc(-c2ccccc2)c1Cl", "log10 BCF": 3.98, "log10 biotransformation half-life (days)": 2.15}, {"compound": "O=C(NC(=O)c1c(F)cccc1F)Nc1ccc(Cl)cc1", "log10 BCF": 2.2}, {"compound": "CCOP(=S)(OCC)Oc1nc(Cl)c(Cl)cc1Cl", "log10 BCF": 3.18, "log10 biotransformation half-life (days)": 0.77}]}]}
